Source: patent US20090149494A1, “THERAPEUTIC USE OF IMIDAZO[1,2-a]PYRIDINE-2-CARBOXAMIDE DERIVATIVES” (SANOFI-AVENTIS, priority 2006, published 2009)

Experiments:
human NOT receptor = experiment: Binding to the human NOT receptor by SPR (Biacore); settings: immobilized GST-NOT (NOT-FL) and His-Thr-NOT 329-598, 3.75 to 0.1 μM, 4° C.
Method: The direct binding between compounds of the invention and the human NOT receptor was evaluated using the SPR (surface plasmon resonance) technique. In this test, the protein is immobilized covalently on the matrix and the test molecule is injected into the chamber containing the sensor chip. The signal is directly proportional to the amount of product bound to the protein. The binding tests were performed in a Biacore S51 machine (Biacore Inc., Piscataway N.J.). The entire GST-NOT protein (NOT-FL) was supplied by Invitrogen (PV3265). The domain for binding to the NOT ligand (His-Thr-NOT 329-598) was expressed and purified as described in Nature 423, 555-560. The two proteins, diluted to a concentration of 20 μg/ml in pH 5.0 acetate buffer containing 5 mM of DTT, were immobilized on a surface of carboxymethyl 5′ dextran (CM5 sensor chip, Biacore Inc.) via amine coupling according to the protocol recommended by Biacore, eluting with an HBS-N buffer (10 mM HEPES, 0.15 M NaCl, 3 mM EDTA, pH 7.4). Approximately 10 000-15 000 resonance units (R^U) of the proteins are captured on the surface of the sensor chip CM5. […] The dissociation was recorded for 5 minutes without any other surface regeneration procedure. […]

murine Nurr1 receptor = molecular target: T1, murine Nurr1 receptor (Mus musculus, UniProt Q06219); experiment: In vitro activity on N2A cells (NBRE-luciferase reporter); assay type: cell-based; settings: N2A-8NBRE-luciferase cells, 24 hours incubation
T1 construct: endogenously expressing the murine Nurr1 receptor; host or cells: Neuro-2A (N2A) mouse neuroblastoma cells stably transfected with 8NBRE-luciferase
Method: The tests consisted in evaluating the in vitro activity of the compounds of the invention on a cell line (N2A) endogenously expressing the murine Nurr1 receptor and stably transfected with the NOT binding response element (NBRE) coupled to the luciferase reporter gene. The EC50 values are between 0.01 and 1000 nM. The tests were performed according to the procedure described hereinbelow.
The cell line Neuro-2A is obtained from a standard commercial source (ATCC). The clone Neuro-2A was obtained from a spontaneous tumor originating from a strain of albino mice A by R. J Klebe et al. This line Neuro-2A is then stably transfected with 8NBRE-luciferase. The N2A-8NBRE cells are cultured to the point of confluence in 75 cm^2 culture flasks containing DMEM supplemented with 10% fetal calf serum, 4.5 g/L of glucose and 0.4 mg/ml of geneticin. After culturing for one week, the cells are recovered with 0.25% trypsin for 30 seconds and then resuspended in DMEM without phenol red, containing 4.5 g/L of glucose and 10% Hyclone defatted serum, and placed in white, transparent-based 96-well plates. The cells are deposited at a rate of 60 000 per well in 75 μL for 24 hours before adding the products. The products are applied in 25 μL and incubated for a further 24 hours. […] The plates are then measured in a microplate luminescence counter, after having been sealed with an adhesive film. […]

T1 sequence (Q06219 whole entry): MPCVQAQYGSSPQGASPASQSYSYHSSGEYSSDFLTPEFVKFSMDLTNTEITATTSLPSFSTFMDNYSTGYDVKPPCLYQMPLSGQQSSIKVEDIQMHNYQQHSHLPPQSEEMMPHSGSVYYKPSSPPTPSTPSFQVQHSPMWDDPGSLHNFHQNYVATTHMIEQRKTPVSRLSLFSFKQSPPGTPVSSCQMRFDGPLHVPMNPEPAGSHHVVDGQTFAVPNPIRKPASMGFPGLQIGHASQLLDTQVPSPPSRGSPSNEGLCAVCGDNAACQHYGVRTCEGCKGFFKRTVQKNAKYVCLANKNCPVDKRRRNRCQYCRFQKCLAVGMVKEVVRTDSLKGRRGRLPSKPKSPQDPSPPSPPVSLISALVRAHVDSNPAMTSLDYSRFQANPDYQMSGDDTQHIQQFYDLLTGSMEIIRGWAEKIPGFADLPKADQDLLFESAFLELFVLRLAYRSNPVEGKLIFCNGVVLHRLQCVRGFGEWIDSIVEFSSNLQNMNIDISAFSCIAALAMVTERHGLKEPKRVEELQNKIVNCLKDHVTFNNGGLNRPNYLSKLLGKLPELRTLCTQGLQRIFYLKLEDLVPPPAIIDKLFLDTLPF

For `O=C(Nc1ccccc1)c1cn2ccccc2n1` [compound 1], the “affinity (classified by maximum binding level and kinetic parameters of binding)” value (human NOT receptor) was “moderate affinity” and the EC50 (murine Nurr1 receptor) was 5.5 nM.

`O=C(Nc1ccc(F)cc1)c1cn2cc(Cl)ccc2n1` [compound 2] showed an EC50 (murine Nurr1 receptor) of 17 nM.
